Assay results: patent publication US9156822B2, “Functionally selective ligands of dopamine D2 receptors” (The University of North Carolina at Chapel Hill, priority 2010, dated 2015)
Entries after “also recorded” stand apart in the source; their conditions may differ. Like-named read-outs stand apart in the source and are kept apart here.

Key:
D2 receptors [1] = molecular target: T1, D2 receptors (Homo sapiens (Human), UniProt P14416); test: CHO-D2 radioligand binding assay ([3H]N-methylspiperone competition); conditions: read-out: D2 Binding Ki ± SEM
Target sequence in this assay (P14416 whole entry): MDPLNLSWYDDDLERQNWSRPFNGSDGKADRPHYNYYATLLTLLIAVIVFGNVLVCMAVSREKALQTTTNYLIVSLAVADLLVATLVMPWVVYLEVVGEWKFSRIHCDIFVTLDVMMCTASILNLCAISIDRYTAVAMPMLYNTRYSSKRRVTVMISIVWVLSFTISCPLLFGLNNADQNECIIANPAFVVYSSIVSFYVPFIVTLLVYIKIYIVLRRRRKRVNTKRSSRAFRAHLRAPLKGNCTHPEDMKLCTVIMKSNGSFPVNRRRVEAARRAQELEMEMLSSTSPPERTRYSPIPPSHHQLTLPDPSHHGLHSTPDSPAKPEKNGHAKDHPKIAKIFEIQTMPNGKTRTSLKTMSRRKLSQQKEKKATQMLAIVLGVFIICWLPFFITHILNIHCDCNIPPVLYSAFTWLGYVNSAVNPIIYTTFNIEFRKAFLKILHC

hD2 receptors = hD2 receptors (Homo sapiens (Human), UniProt P14416); test: D2 mediated cAMP GloSensor assay; assay type: cell-based; conditions: for Emax: read-out: cAMP (GloSensor) Emax; as to cAMP (GloSensor) activity in words (merged EC50/Emax cell): key: neutral: Neutral ligands are either antagonists or are inactive
D2 receptors [2] = molecular target: T1, D2 receptors; test: D2 β-arrestin recruitment (Tango) assay; assay type: cell-based
Procedure: The next day, cells were plated in white, clear-bottom, 384-well plates (Greiner, 10,000 cells/well, 50 μl/well) in DMEM containing 1% dialyzed fetal bovine serum. […] Data were normalized to vehicle (0%) and quinpirole (100%) controls and regressed using the sigmoidal dose-response function built into GraphPad Prism 4.0.
Target sequence in this assay (P14416 whole entry, looked up): as the sequence (P14416 whole entry) above

5HT2C [3] = molecular target: T2, 5HT2C (Homo sapiens (Human), UniProt P28335); test: biochemical
5HT2B [4] = molecular target: T3, 5HT2B (Homo sapiens (Human), UniProt P41595); conditions: read-out: 5HT2B/binding (Ki)
5HT2C [5] = molecular target: T2, 5HT2C; conditions: read-out: 5HT2C/binding (Ki)
5HT2B [6] = molecular target: T3, 5HT2B; test: cell-based
[7] = test system: wild-type and β-arrestin-2 knockout mice; conditions: i.p., 5.0 mg/kg (haloperidol 2.0 mg/kg), 30 and 60 min
5HT2B [8] = molecular target: T3, 5HT2B; test: biochemical
H1-histamine receptor = H1-histamine receptor (Homo sapiens (Human), UniProt P35367); test: H1 binding
5HT2C [9] = molecular target: T2, 5HT2C; test: 5HT2C FLIPR (Ca2+ mobilization); assay type: cell-based
5HT2A = 5HT2A (Homo sapiens (Human), UniProt P28223); test: 5HT2A FLIPR (Ca2+ mobilization); assay type: cell-based
5HT2B [10] = molecular target: T3, 5HT2B
5HT1A [11] = molecular target: T4, 5HT1A (Homo sapiens (Human), UniProt P08908); test: 5HT1A binding
5HT1A [12] = molecular target: T4, 5HT1A; test: 5HT1A cAMP biosensor; assay type: cell-based
hD2L dopamine receptor = hD2L dopamine receptor (Homo sapiens (Human), UniProt P14416); test: pERK high-content assay; assay type: cell-based
Procedure: On day 1 of the assay, cells were seeded onto black clear-bottom tissue culture-treated 96-well plates (Greiner, BioOne). On day 2 of the assay, cells were washed with serum-free medium (Ham's F-12, penicillin and streptomycin) and incubated in 100 μL serum-free medium overnight.
Immunofluorescence: Automatic multichannel pipetters were used for liquid handling and multichannel vacuum manifolds for aspirations. Each tested concentration was typically measured in triplicate or quadruplicate. For concentration curves, half-log-dilutions were used. Drug dilutions were prepared in stimulation medium (serum-free medium, 100 mg/L ascorbic acid). 100 μM dopamine and 1 μM PMA (phorbol 12-myristate 13-acetate) were used as positive controls. Medium only was used as a negative control. Specificity of the response was confirmed by pretreatment for 5 min with 10 μM of the antagonist spiperone and in experiments using wild type CHO cells.
Cells were stimulated on day 3 by fast addition of 50 μL equilibrated 3× drug dilutions in a tissue culture incubator for 5 min. Plates were placed on ice, the medium was aspirated, and 100 μL/well of freshly prepared ice-cold fixing buffer (4% formaldehyde and 0.5 mM CaCl2 in PBS) solution was added. After 30 min fixing at room temperature, the plates were washed with 350 μL/well PBS/Ca (0.5 mM CaCl2 in PBS) and permeabilized for 20 min in 100 μL/well 0.3% Triton X-100 in PBS/Ca. […] Plates were washed three times with 250 μL/well washing buffer, post-fixed for 10 min in fixing buffer, washed with 250 μl PBS/Ca, filled with 200 μL/well PBS/Ca, sealed with transparent adhesive plate seals, and stored at 4° C.
The Alexa594 light path was used for the target signal, Alexa488 for whole cell staining, and Hoechst for the nuclear staining. Images were analyzed using the CellProfiler software. […] Concentration curves were analyzed in GraphPad Prism by fitting against a sigmoidal dose-response model and normalization to the dopamine curve.

[13] = HTLA cells, read-out: β-arrestin (Tango) EC50
[14] = normalized to quinpirole (100%)
[15] = CHO-D2 membranes, [3H]N-methylspiperone
[16] = HEK293T, isoproterenol-stimulated cAMP
[17] = normalized to quinpirole, negative = inverse agonist

T2 sequence (P28335 33-458, species assumed): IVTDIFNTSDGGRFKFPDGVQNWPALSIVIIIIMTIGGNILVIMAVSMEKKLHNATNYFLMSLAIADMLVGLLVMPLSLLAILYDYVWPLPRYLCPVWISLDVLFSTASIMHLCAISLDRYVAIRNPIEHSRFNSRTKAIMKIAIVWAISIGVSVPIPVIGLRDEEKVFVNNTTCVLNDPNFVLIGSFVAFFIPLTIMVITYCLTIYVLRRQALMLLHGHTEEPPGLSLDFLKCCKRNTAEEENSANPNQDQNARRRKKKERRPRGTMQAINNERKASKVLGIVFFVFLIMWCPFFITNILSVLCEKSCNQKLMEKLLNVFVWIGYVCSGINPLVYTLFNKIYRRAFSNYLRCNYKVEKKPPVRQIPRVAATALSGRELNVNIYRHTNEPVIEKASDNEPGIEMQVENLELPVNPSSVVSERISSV
T3 sequence (P41595 whole entry, species assumed): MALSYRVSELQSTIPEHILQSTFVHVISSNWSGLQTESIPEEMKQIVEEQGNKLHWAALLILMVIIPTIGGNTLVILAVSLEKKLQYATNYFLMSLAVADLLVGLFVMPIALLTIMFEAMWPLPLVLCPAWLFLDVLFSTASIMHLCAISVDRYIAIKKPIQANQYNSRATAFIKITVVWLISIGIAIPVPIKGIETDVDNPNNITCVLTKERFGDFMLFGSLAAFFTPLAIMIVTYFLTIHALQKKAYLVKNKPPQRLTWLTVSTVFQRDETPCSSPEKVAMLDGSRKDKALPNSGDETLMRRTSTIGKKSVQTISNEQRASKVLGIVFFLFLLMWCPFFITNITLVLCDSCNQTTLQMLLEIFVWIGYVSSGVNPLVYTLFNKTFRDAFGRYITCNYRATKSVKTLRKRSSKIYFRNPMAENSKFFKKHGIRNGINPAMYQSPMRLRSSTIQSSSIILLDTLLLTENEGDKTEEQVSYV
hD2 receptors, sequence (P14416 whole entry): as the sequence (P14416 whole entry) above
hD2L dopamine receptor, sequence (P14416 whole entry): as above
H1-histamine receptor, sequence (P35367 whole entry): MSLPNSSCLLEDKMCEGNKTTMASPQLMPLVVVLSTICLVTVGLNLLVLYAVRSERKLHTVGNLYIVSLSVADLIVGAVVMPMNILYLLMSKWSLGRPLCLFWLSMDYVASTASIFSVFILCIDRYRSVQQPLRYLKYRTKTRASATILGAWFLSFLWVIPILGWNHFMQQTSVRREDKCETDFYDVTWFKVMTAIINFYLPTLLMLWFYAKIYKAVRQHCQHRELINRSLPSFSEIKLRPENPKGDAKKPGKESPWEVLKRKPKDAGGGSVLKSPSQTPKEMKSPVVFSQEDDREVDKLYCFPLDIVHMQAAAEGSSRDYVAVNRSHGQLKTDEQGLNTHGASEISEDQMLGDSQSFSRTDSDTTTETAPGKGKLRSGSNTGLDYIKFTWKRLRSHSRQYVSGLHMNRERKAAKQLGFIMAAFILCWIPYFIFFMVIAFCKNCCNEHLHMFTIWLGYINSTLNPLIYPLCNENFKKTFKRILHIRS

Compound	β-arrestin (Tango) % activ at 1 μM (D2 receptors [2]) [%]	EC50 (D2 receptors [2]; [13]) [nM]	Emax (D2 receptors [2]; [14]) [%]	melting point [°C]	Ki (D2 receptors [1]; [15]) [nM]	Emax (hD2 receptors; [17]) [%]	cAMP (GloSensor) activity in words (merged EC50/Emax cell) (hD2 receptors)	also measured
Clc1cccc(C2CCN(CCCCOc3ccc4scnc4c3)CC2)c1Cl [Compound 21, 5-(4-(4-(2,3-dichlorophenyl)piperidin-1-yl)butoxy)benzo[d]thiazole]	26	82	81	79 to 81				Ki (D2 receptors [1]): 42 ± 4 nM; EC50 (hD2 receptors): 21 nM; Emax (hD2 receptors): -27%
Clc1cccc(N2CCN(CCCOc3ccc4scnc4c3)CC2)c1Cl [Compound 23, 5-(3-(4-(2,3-dichlorophenyl)piperazin-1-yl)propoxy)benzo[d]thiazole]	48	107	91	127 to 129	30 ± 5	-16		EC50 (hD2 receptors; [16]): 9.8 nM
Clc1cccc(N2CCCN(CCCOc3ccc4scnc4c3)CC2)c1Cl [Compound 8, 5-(3-(4-(2,3-dichlorophenyl)-1,4-diazepan-1-yl)propoxy)benzo[d]thiazole]				93 to 94		-26		
O=C1CCc2ccc(OCCCCN3CCCN(c4cccc(Cl)c4Cl)CC3)cc2N1 [Compound 2, 7-(4-(4-(2,3-dichlorophenyl)-1,4-diazepan-1-yl)butoxy)-3,4-dihydroquinolin-2(1H)-one]								Ki (5HT2C [3]): 0.6 to 250 nM; Ki (5HT2B [4]): 0.6 nM; Ki (5HT2C [5]): 115 nM; IC50 (5HT2B [6]): 115 nM; catalepsy (latency to move, inclined screen test) ([7]; wild-type mice, listed as UNC0006): do not induce catalepsy; catalepsy (latency to move, inclined screen test) ([7]; β-arrestin-2 knockout mice, listed as UNC0006): induced catalepsy; also recorded: inducing catalepsy; Ki (5HT2B [8]): 0.6 to 250 nM; Ki (H1-histamine receptor): 4.5 nM; IC50 (5HT2C [9]): 3600 nM; functional mode at 5HT2C (5HT2C [9]): antagonists; functional mode at 5HT2A (5HT2A): antagonists; functional mode at 5HT2B (5HT2B [10]): antagonists; Ki (5HT1A [11]): 0.6 to 250 nM; Ki (5HT1A [11]; read-out: 5HT1A/binding (Ki)): 60 nM; EC50 (5HT1A [12]): > 1000 nM; EC50 (5HT1A [12]; read-out: 5HT1A/cAMP (EC50)): 2500 nM
O=c1[nH]c2ccc(OCCCCN3CCC(c4cccc(Cl)c4Cl)CC3)cc2[nH]1 [Compound 24, 5-(4-(4-(2,3-dichlorophenyl)piperidin-1-yl)butoxy)-1H-benzo[d]imidazol-2(3H)-one]				180 to 182				
O=c1ccc2ccc(OCCCN3CCCN(c4cccc(Cl)c4Cl)CC3)cc2[nH]1 [Compound 15, 7-(3-(4-(2,3-dichlorophenyl)-1,4-diazepan-1-yl)propoxy)quinolin-2(1H)-one]		2.2	84	117 to 118	3.4 ± 0.2	64		EC50 (hD2 receptors; [16]): 13 nM
Clc1cccc(N2CCN(CCCCOc3ccc4scnc4c3)CC2)c1Cl [Compound 36, 5-(4-(4-(2,3-dichlorophenyl)piperazin-1-yl)butoxy)benzo[d]thiazole]	13		64	93 to 94.5	17 ± 3		neutral	EC50 (D2 receptors [2]): 59 nM
O=C(CCCN1CCC(O)(c2ccc(Cl)cc2)CC1)c1ccc(F)cc1 [haloperidol, reference compound]								catalepsy (latency to move, inclined screen test) ([7]; β-arrestin-2 knockout mice): inducing catalepsy
Clc1cccc(N2CCN(CCCOc3ccc4cn[nH]c4c3)CC2)c1Cl [Compound 20, 6-(3-(4-(2,3-dichlorophenyl)piperazin-1-yl)propoxy)-1H-indazole]	45	59	90	159 to 161	104 ± 13	-22		EC50 (hD2 receptors; [16]): 9.7 nM
O=C1NCCc2ccc(OCCCCN3CCC(c4cccc(Cl)c4Cl)CC3)cc21 [Compound 33, 7-(4-(4-(2,3-dichlorophenyl)piperidin-1-yl)butoxy)-3,4-dihydroisoquinolin-1(2H)-one]	26		64	113 to 114	20 ± 3		neutral	EC50 (D2 receptors [2]): 24 nM
O=C1CCc2ccc(Oc3cccc(CN4CCN(c5cccc(Cl)c5Cl)CC4)c3)cc2N1 [Compound 30, 7-(3-((4-(2,3-dichlorophenyl)piperazin-1-yl)methyl)phenoxy)-3,4-dihydro quinolin-2(1H)-one]	9		58	182 to 183	113 ± 18		neutral	EC50 (D2 receptors [2]): 297 nM
Clc1cccc(C2CCN(CCCOc3ccc4scnc4c3)CC2)c1Cl [Compound 22, 5-(3-(4-(2,3-dichlorophenyl)piperidin-1-yl)propoxy)benzo[d]thiazole]	59				75 ± 12		neutral	EC50 (hD2L dopamine receptor; CHO-hD2L cells, read-out: p-ERK EC50): 58 nM; Emax (hD2L dopamine receptor; normalized to dopamine, read-out: p-ERK Emax): 50%; EC50 (D2 receptors [2]): 51 nM; β-arrestin (Tango) Emax (D2 receptors [2]; [14]): 100%
O=C1CCc2ccc(OCCCN3CCCN(c4cccc(Cl)c4Cl)CC3)cc2N1 [Compound 1, 7-(3-(4-(2,3-dichlorophenyl)-1,4-diazepan-1-yl)propoxy)-3,4-dihydroquinolin-2(1H)-one]				130 to 131				
Clc1cccc(N2CCCN(CCCCOc3ccc4scnc4c3)CC2)c1Cl [Compound 7, 5-(4-(4-(2,3-dichlorophenyl)-1,4-diazepan-1-yl)butoxy)benzo[d]thiazole]				82 to 84				
O=C1NCCc2ccc(OCCCN3CCCN(c4cccc(Cl)c4Cl)CC3)cc21 [Compound 5, 7-(3-(4-(2,3-dichlorophenyl)-1,4-diazepan-1-yl)propoxy)-3,4-dihydroisoquinolin-1(2H)-one]	13	8	47	116 to 117	5.7 ± 0.8	-16		EC50 (hD2 receptors; [16]): 5.6 nM
O=c1[nH]c2ccc(OCCCN3CCCN(c4cccc(Cl)c4Cl)CC3)cc2[nH]1 [Compound 19, 5-(3-(4-(2,3-dichlorophenyl)-1,4-diazepan-1-yl)propoxy)-1H-benzo[c]imidazol-2(3H)-one]		8.5	48	148 to 150	4.5 ± 0.2		neutral	
